According to the SangsterLogP compilation:
Each block holds one compound with its values, some of them ahead of it.

What was measured:
[1] = method code SF-AS, from DOI: 10.1002/jps.2600611027, PMID: 5072421
[2] = method code SF-CR+DM, from DOI: 10.1021/ja01573a017; conditions: pH 6.5
[3] = not given; remark: listed apart in the source
[4] = method code SF-AS, from DOI: 10.1021/acs.inorgchem.5b01238, PMID: 26280387
[5] = method code SF-NMR, from DOI: 10.1021/jm00157a023, PMID: 3806574
[6] = method code SF-HPLC, from DOI: 10.1016/0378-5173(86)90071-2; conditions: pH 7.4
[7] = method code SF-HPLC, from DOI: 10.1016/0378-5173(87)90096-2; conditions: pH 8.0
[8] = method code SF, from DOI: 10.3109/00498258709043934, PMID: 3564538
[9] = not given; remark: listed apart in the source
[10] = method code SF-AS, from DOI: 10.1021/es00012a023, PMID: 22148214
[11] = method code SF-HPLC, from DOI: 10.1023/a:1015862319927, PMID: 2062808; conditions: pH 7.4
[12] = method code SF-AS, from DOI: 10.1016/s0021-9673(01)91572-9, PMID: 2376602; conditions: pH 7.0
[13] = method code SF-AS, from DOI: 10.1016/0006-2952(80)90068-4, PMID: 6775639
[14] = method code SF, from DOI: 10.1016/s0378-5173(98)00231-2
[15] = method code SF-GLC, from DOI: 10.1016/j.chemosphere.2004.08.061, PMID: 15519382
[16] = method code SF-AS, from DOI: 10.1021/jm00297a026, PMID: 5441130
[17] = not given; remark: listed apart in the source
[18] = method code SF-HPLC, from DOI: 10.1007/s00216-006-0868-5, PMID: 17082876
[19] = method code SF-AS, from DOI: 10.1021/jm00075a005, PMID: 8246220; conditions: pH 7.4
[20] = not given; remark: listed apart in the source
[21] = method code SF-HPLC, from Peips, M.; Sikk, P.; Aaviksaar, A. (1986). Hydrophobic interaction in the active sites of serine proteases from thermoactinomycetes. Org. React., 23(3)261-271.; conditions: pH 2.2
[22] = method code SF-HPLC, from DOI: 10.1248/cpb.41.694
[23] = method code SF, from DOI: 10.1016/0048-3575(88)90017-x
[24] = method code SF-AS, from DOI: 10.1016/0006-2952(93)90433-w, PMID: 8494536; conditions: pH 7.4
[25] = method code SF-AS, from DOI: 10.1021/jf60220a002
[26] = not given; remark: listed apart in the source
[27] = method code SF, from DOI: 10.1080/09553008714551831, PMID: 3497891; conditions: pH 7.4
[28] = method code SF, from DOI: 10.1016/0223-5234(94)90060-4; conditions: pH 7.4

Structure (SMILES): Cc1cccc2ccccc12
logP: 3.87

Structure (SMILES): Cc1cn([C@H]2C[C@H](O)[C@@H](CO)O2)c(=O)[nH]c1=O
logP [3]: -1.04

Structure (SMILES): CSC(=S)C=C(O)c1ccc(O)cc1
logP [4]: 1.9

Structure (SMILES): CCOCCOCCOP(=O)(N1CC1(C)C)N1CC1(C)C (stereo not given)
logP [5]: 0.22

Structure (SMILES): NC(=O)CCCc1cccnc1
logD [7]: 0.07

Structure (SMILES): CCCOC(=O)C(C(=O)OCCC)=C1SC=CS1
logP [8]: 3.93

Structure (SMILES): CC1(c2ccncc2)CCC(=O)NC1=O (stereo not given)
logP [9]: 0.07

Structure (SMILES): NC(=O)CCCc1ccncc1
logD [7]: 0.06

Structure (SMILES): CC1=C(C)C(=O)C(C)=C(C)C1=O
logP [13]: 2.12

Structure (SMILES): OCCCc1ccccc1
logP [14]: 1.83

Structure (SMILES): Cn1c(Cl)c(Br)c(Br)c1-c1c(Br)c(Br)c(Br)n1C
logP [15]: 6.6

Structure (SMILES): CCCCC(CO)n1cnc2c(N)ncnc21 (stereo not given)
logP [16]: 1.16

Structure (SMILES): N=C(Nc1ccccc1)Nc1ccccc1
logP [18]: 2.85

Structure (SMILES): O=C1CC2(CCCC2)C(=O)N1OCc1ccc(Cl)cc1
logD [19]: 2.53

Structure (SMILES): CCCCCCCCC1(c2ccncc2)CCC(=O)NC1=O (stereo not given)
logP [9]: 4.04

Structure (SMILES): CCc1ccc2ccccc2c1
logP: 4.38

Structure (SMILES): CC(=O)C=Cc1ccccc1
logP [20]: 2.13

Structure (SMILES): COC(=O)[C@H](Cc1ccccc1)NC(C)=O
logD [21]: 0.92

Structure (SMILES): O=C1C(c2[nH]c3ccc(S(=O)(=O)O)cc3c2O)=Nc2ccc(S(=O)(=O)O)cc21
logP [13]: -2

Structure (SMILES): Nc1ccn([C@@H]2C=C(CO)[C@@H](O)[C@H]2O)c(=O)n1
logD [12]: -2.3

Structure (SMILES): Cn1c(Cl)c(Cl)c(Br)c1-c1c(Br)c(Br)c(Cl)n1C
logP [15]: 6.5

Structure (SMILES): CN(C)C(=O)OCc1ccc(C(N)=O)cc1
logP [22]: 0.77

Structure (SMILES): CC(=O)OCN1Cc2ccccc2C1=O
logP [23]: 0.99

Structure (SMILES): CC(=O)CC(=O)Nc1ccccc1
logP [18]: 1.04

Structure (SMILES): Cc1ccc2cc3ccccc3cc2c1
logD [24]: 5

Structure (SMILES): O=P(N1CCOCCOCCOCCOCC1)(N1CC1)N1CC1
logP [5]: 0.12

Structure (SMILES): CCOP(=O)(NC)O/N=C(/C#N)c1ccc(Cl)cc1 (stereo not given)
logP [25]: 2.5

Structure (SMILES): CCCCC(NC(C)=O)C(=O)OC (racemic)
logD [21]: 0.79

Structure (SMILES): OCCCCCc1ccccc1
logP [14]: 2.89

Structure (SMILES): Oc1ccc(Cl)c2ccccc12
logD [2]: 4.1

Structure (SMILES): CCOCCOCCOP(=O)(N1CC1)N1CC1
logP [5]: 0.1

Structure (SMILES): Cc1cc2ccccc2cc1C
logP: 4.4

Structure (SMILES): COC(=O)C(=Cc1cnc(S(C)=O)n1C)C(=O)OC (stereo not given)
logD [27]: -0.43

Structure (SMILES): CC(C=CC1=C(C)CCCC1(C)C)=CC=CC(C)=CC(=O)OCC1OC(n2ccc(N)nc2=O)CS1 (stereo not given)
logD [28]: 1.24

Structure (SMILES): COCCc1ccc(OCC(O)CNC(C)C)cc1 (stereo not given)
logP [20]: 1.65

Structure (SMILES): CCNP(=O)(OCC)O/N=C(/C#N)c1ccc(OC)cc1 (stereo not given)
logP [25]: 2.39

Structure (SMILES): Nc1nc(=O)n([C@H]2CC[C@@H](CO)O2)cc1F
logD [12]: -1.05

Structure (SMILES): CC(C)(C)NCC(O)COc1cccc2c1C[C@H](O)[C@H](O)C2 (stereo not given in full)
logP [20]: 1.27

Structure (SMILES): CC(C=CC1=C(C)CCCC1(C)C)=CC=CC(C)=CC(=O)Nc1ccn(C2CSC(CO)O2)c(=O)n1 (stereo not given)
logD [28]: 1.23

Structure (SMILES): CCC(O)Cn1cnc2c(N)ncnc21 (stereo not given)
logP [16]: 0.14

Structure (SMILES): CCCCCC(NC(C)=O)C(=O)OC (stereo not given)
logD [21]: 1.28

Structure (SMILES): CCNP(=O)(OCC)ON=C(C#N)c1ccc([N+](=O)[O-])cc1 (stereo not given)
logP [25]: 1.76

Structure (SMILES): CC(=O)OCN1C(=O)c2ccccc2C1=O
logP [23]: 1.15

Structure (SMILES): O=S1(=O)OC(c2cc(Br)c(O)c(Br)c2)(c2cc(Br)c(O)c(Br)c2)c2ccccc21
logP [18]: 4.88

Structure (SMILES): CC1=CC(=O)C(C)=C(C)C1=O
logP [13]: 1.47

Structure (SMILES): CS(=O)CCCOc1ccc2ccccc2c1 (stereo not given)
logD [24]: 2.42

Structure (SMILES): CCC(C)C(NC(=O)C(=O)OCC1OC(n2cc(C)c(=O)[nH]c2=O)CC1N=[N+]=[N-])C(=O)O (stereo not given)
logP [3]: 1.15

Structure (SMILES): OCCCCCCc1ccccc1
logP [14]: 3.29

The next lines start with the values.

logP [1]: 3.75
Structure (SMILES): CCCCCc1ccncc1

logP [1]: 5
Structure (SMILES): CCCCCCCc1ccncc1

logD [2]: 2.84
Structure (SMILES): Cc1ccc(NC(=O)c2ccco2)c(O)c1

logD [6]: 2
Structure (SMILES): CC(C)(C)C(=O)OCOc1ccccc1C(N)=O

logD [6]: 1.66
Structure (SMILES): CCCC(=O)OCOc1ccccc1C(N)=O

logP [4]: 1.73
Structure (SMILES): CCSC(=S)C=C(O)c1cccc(O)c1

logP [10]: 1.64
Structure (SMILES): CC(C)OC(=O)CS(=O)c1ccc([N+](=O)[O-])cc1 (stereo not given)

logD [11]: -0.95
Structure (SMILES): O=c1[nH]c(=O)n([C@H]2C[C@H](O)[C@@H](CO)O2)cc1I

logD [12]: -1.3
Structure (SMILES): Nc1ncnc2c1ncn2C1C=C(CO)C(O)C1O (stereo not given)

logP [17]: 4.26
Structure (SMILES): CCCCCNCc1ccc(C)cc1

logD [11]: 1.4
Structure (SMILES): O=C(OC[C@H]1O[C@@H](n2cc(I)c(=O)[nH]c2=O)C[C@@H]1O)c1ccccc1

logD [7]: 0.4
Structure (SMILES): NC(=O)CCCCc1ccccn1

logD [6]: 0.52
Structure (SMILES): CC(=O)OCOc1ccccc1C(N)=O

logP [4]: 1.71
Structure (SMILES): CSC(=S)C=C(O)c1cccc(O)c1

logD [19]: 2.3
Structure (SMILES): O=C1CC2(CCCC2)C(=O)N1OCc1ccccc1

logP [10]: 2.22
Structure (SMILES): CC(C)OC(=O)CS(=O)c1ccc(Cl)cc1[N+](=O)[O-] (stereo not given)

logP [23]: 0.65
Structure (SMILES): CC(=O)OCN1C(=O)C(C)=C(C)C1=O

logP [26]: 2.5
Structure (SMILES): COc1ccc(C(C(=O)O)C(C)C)cc1 (stereo not given)

logP [17]: 2.96
Structure (SMILES): CCCNCc1ccc(C)cc1

logD [24]: 1.74
Structure (SMILES): CS(=O)(=O)c1cccc2ccccc12

logP [1]: 4.35
Structure (SMILES): CCCCCCc1ccncc1

logP [3]: 1.2
Structure (SMILES): Cc1cn(C2CC(N=[N+]=[N-])C(COC(=O)C(=O)NC(Cc3ccccc3)C(=O)O)O2)c(=O)[nH]c1=O (stereo not given)

logP [8]: 3.75
Structure (SMILES): CC(C)OC(=O)C(C(=O)OC(C)C)=C1SC=CS1

logD [28]: 0.51
Structure (SMILES): CC(=O)OCC1OC(n2ccc(N)nc2=O)CS1 (stereo not given)

logP [17]: 1.96
Structure (SMILES): CNCc1ccc(C)cc1

logP [16]: 1.79
Structure (SMILES): CCCCCn1cnc2c(N)ncnc21

logP [9]: 2.85
Structure (SMILES): CCCCCCC1(c2ccncc2)CCC(=O)NC1=O (stereo not given)

logD [19]: 1.15
Structure (SMILES): CON1C(=O)CC2(CCCC2)C1=O

logP [22]: 2.86
Structure (SMILES): CSc1ccc(COC(=O)N(C)C)cc1

logP [22]: 1.98
Structure (SMILES): CN(C)C(=O)OCc1cccc([N+](=O)[O-])c1

logD [27]: -0.28
Structure (SMILES): CC(OCC=CCO)N1C=CNC1[N+](=O)[O-] (stereo not given)

logP [8]: 2.9
Structure (SMILES): CCOC(=O)C(C(=O)CC)=C1SC=CS1

logP [10]: 2.76
Structure (SMILES): CC(C)OC(=O)CSc1ccccc1[N+](=O)[O-]

logD [2]: 3.08
Structure (SMILES): Cc1ccc(NC(=O)c2ccccc2)c(O)c1

logD [27]: 0.49
Structure (SMILES): COC(=O)C(=Cc1cnc(S(C)(=O)=O)n1C)C(=O)OC

logD [11]: 0.68
Structure (SMILES): CCC(=O)OCC1OC(n2cc(I)c(=O)[nH]c2=O)CC1O (stereo not given)

logP [15]: 6.7
Structure (SMILES): Cn1c(Br)c(Br)c(Br)c1-c1c(Br)c(Br)c(Br)n1C
